Data reported in patent publication US12678412B2, “Substituted tolans for the modulation of microbial colonization” (BioMendics, LLC, priority 2017, dated 2026).

Assays:
[1] = tested on: S. typhimurium TA100; experiment: Dose range finding colony forming assay, strain TA100 with metabolic activation; assay type: cell-based
Protocol: A series of dose range finding assays were performed with five bacterial strains, S. typhimurium TA97a, TA98, TA100, TA1535, and E. coli WP2 uvrA pKM101, with and without metabolic activation at three plates per dose. The following doses, along with positive and negative controls, were tested: 5000, 2500, 1250, 500, 250, 125, 50, 20, 10, 5, 2, 1, and 0.2 μg/plate. The plates were evaluated for toxicity (a decrease in plate counts with increasing dose and/or a visible thinning of the background lawn) and for precipitation of the test article. Metabolic activation was included in some samples by adding phenobarbital/benzoflavone-induced rat liver S9 fractions with cofactors (S9 mix). Prior to use, freshly thawed aliquots of rat liver S9 were mixed with a sterile cofactor mix. The S9 mix contains a 10% liver S9 concentration and was refrigerated or stored on ice until used. When testing with metabolic activation, the S9 mix was used in the assay tube in place of phosphate buffer.
Dosing formulations were prepared to deliver all doses in a constant volume of 0.1 mL. The highest dose was prepared from test article weighed to the nearest 0.1 mg and the remaining formulations were prepared as serial dilutions from the high dose stock formulation. Using a permanent marking pen or computer printed labels, assay plates were labeled with the project and study numbers and the date. Assay plates and tubes were labeled with a unique identifier, which was used to match the assay tubes with the properly identified minimal glucose agar plate.
The pre-incubation method was used to perform the assay. The assay mix consisted of 0.1 mL of the test article formulation or control article, 0.5 mL S9 mix or phosphate buffer, and 0.1 mL of bacterial culture. Assay tubes were incubated at 37±1° C. with gentle agitation for 20±1 minutes, then 2.0-2.5 mL top agar was added to the assay mix and the top agar/assay mix poured onto appropriately labeled minimal glucose agar plates. Once the top agar hardened, the plates were inverted and incubated at 37±1° C. for 48±2 hours. Plates were counted with the Sorcerer (v. 2.2)/Ames Study Manager (v. 1.2.4) system from Perceptive Instruments (Suffolk, UK). With this system, plate counts are automatically transferred from the plate imager (Sorcerer) to a Study Manager spreadsheet, and the data are stored in a secure manner on an Oracle database. Some plates were hand counted, e.g., if sample precipitate interferes with automatic counting or toxicity results in the formation of microcolonies, in which case, counts for these plates were entered into the spreadsheet manually. Plates were scored also with the extent of colonization by a post fix code.

[2] = tested on: Methicillin Resistant Staphylococcus aureus (MRSA USA 300); experiment: Colony forming assay, spread plate, MRSA USA 300; assay type: cell-based; conditions: for Reduction of MRSA USA 300 counts: 24 h
Protocol: A fresh culture of pathogenic isolate was used in these examples. The bacterial strains used were Methicillin Resistant Staphylococcus aureus (MRSA USA 300), Pseudomonas aeruginosa ATCC 27312, and Candida albicans ATCC 64550.
FIG. 5 illustrates the spread plate method used in these examples. In sum, agar plates were made, bacteria were diluted to 10^6 or 10^8 CFU/mL, bacteria and drug were mixed together and then plated. Glass spreading beads were used because they give a better bacterial spread. Plates were incubated for 24 hrs then the colonies that formed were counted.
Proliferating cultures of Methicillin Resistant Staphylococcus aureus (MRSA, USA 300) were used in a colony forming assay. Freeze-dried bacteria culture of MRSA was recovered by swabbing a 3-cm diameter growth area and resuspending it to obtain a final inoculum suspension of approximately 10^8 CFU/mL. The concentration was confirmed using historical optical density measurements. The total compound BM3103 was suspended in a 70% v/v alcohol gel formulation (Formulation A) before the introduction of bacteria, with the vehicle consisting of solely the 70% v/v alcohol gel. MRSA at 10^8 CFU/mL was challenged with equal parts of a high, medium, and low dose of BM3103, vehicle formulation, positive control (Tobramycin, 600 μg/mL), or untreated control (phosphate buffered saline). The inoculum was plated on Tryptic Soy Broth plates at 37° C. for 24 h. Plates were photographed and counted. The treatment for each experiment was done in triplicate, and the experiment was repeated three times, for a total of 9 plates per group.
Colony counts for each treatment were tabulated and the Log of the colony forming units/mL (Log CFU/mL) was determined. The mean and standard deviation of the Log CFU/mL were calculated for each treatment. A one-way analysis of variance was performed at a 95% confidence interval.

[3] = tested on: MRSA USA 400 biofilms; experiment: Treatment of an existing biofilm; assay type: cell-based, Staphylococcus aureus
Protocol: For the treatment of MRSA USA 400 biofilms, the same 96 well plate assay procedure was used as described in the biofilm inhibition section above. However, the MRSA USA 400 inoculum (10^8 CFU/mL) grew overnight at 37° C. in the absence of BM3103 and without shaking. After 24 h of biofilm formation, BM3103 was serially diluted across a 96 well plate from of 1 mM to 0.002 mM. The plate was incubated again overnight at 37° C. without shaking.

COc1ccc(C#Cc2ccc(O)cc2)cc1 [BM3103, 4-hydroxy-4′-methoxytolan]
Colony forming units/plate ([1]; 0.2 μg/plate): 78 colony forming units/plate
Individual colony counts ([1]; 0.2 μg/plate): 78
Colony forming units/plate ([1]; 1 μg/plate): 56.0 colony forming units/plate
Individual colony counts ([1]; 1 μg/plate): 56
Colony forming units/plate ([1]; 2 μg/plate): 36.0 colony forming units/plate
Individual colony counts ([1]; 2 μg/plate): 360
Colony forming units/plate ([1]; 5 μg/plate): 74.0 colony forming units/plate
Individual colony counts ([1]; 5 μg/plate): 74
Colony forming units/plate ([1]; 10 μg/plate): 38.0 colony forming units/plate
Individual colony counts ([1]; 10 μg/plate): 38
Plate postfix code (individual colony counts) ([1]; 10 μg/plate): S T
Colony forming units/plate ([1]; 20 μg/plate): 54.0 colony forming units/plate
Individual colony counts ([1]; 20 μg/plate): 54
Colony forming units/plate ([1]; 50 μg/plate): 0.0 colony forming units/plate
Individual colony counts ([1]; 50 μg/plate): 0
Colony forming units/plate ([1]; 125 μg/plate): 0.0 colony forming units/plate
Individual colony counts ([1]; 125 μg/plate): 0
Colony forming units/plate ([1]; 250 μg/plate): 0.0 colony forming units/plate
Individual colony counts ([1]; 250 μg/plate): 0
Colony forming units/plate ([1]; 500 μg/plate): 0.0 colony forming units/plate
Individual colony counts ([1]; 500 μg/plate): 0
Colony forming units/plate ([1]; 1250 μg/plate): 0.0 colony forming units/plate
Individual colony counts ([1]; 1250 μg/plate): 0
Plate postfix code (individual colony counts) ([1]; 1250 μg/plate): A P
Colony forming units/plate ([1]; 2500 μg/plate): 0.0 colony forming units/plate
Individual colony counts ([1]; 2500 μg/plate): 0
Plate postfix code (individual colony counts) ([1]; 2500 μg/plate): A P
Colony forming units/plate ([1]; 5000 μg/plate): 0.0 colony forming units/plate
Individual colony counts ([1]; 5000 μg/plate): 0
Plate postfix code (individual colony counts) ([1]; 5000 μg/plate): A P
Reduction in MRSA USA 300 counts compared to the positive control ([2]; all three doses (0.05, 0.25, 0.5% w/v) vs Tobramycin 600 μg/mL): significantly greater reduction
Reduction of MRSA USA 300 counts ([2]; high dose 0.5% w/v, 22 mM, alcohol gel): approximately 8 fold
Reduction of MRSA USA 300 counts ([2]; low dose 0.05% w/v, 2 mM, 70% v/v alcohol gel (Formulation A), compared to vehicle and untreated controls): over 6 fold
Reduction of MRSA USA 300 counts ([2]; medium dose 0.25% w/v, 11 mM, alcohol gel, compared to vehicle and untreated control): 7 fold
Reduction of established MRSA USA 400 biofilm ([3]; 0.008 mM, 24 h treatment of 24 h biofilm, FIG. 14C): slight reduction in the biofilm
Reduction of established MRSA USA 400 biofilm ([3]; 0.0625 mM or above, 24 h treatment of 24 h biofilm, FIG. 14B): reduced the biofilm of MRSA USA 400 significantly
Reduction of established MRSA USA 400 biofilm ([3]; 0.125 mM, 24 h treatment of 24 h biofilm, FIG. 14A): reduced the biofilm of MRSA USA 400 significantly
Reduction of established MRSA USA 400 biofilm ([3]; concentrations below 0.002 mM, FIG. 14D): no reduction in the biofilm
